test system: male guinea-pigs; experiment: animal or person; assay type: in vivo; conditions: Cavia porcellus, ip, 2 h, read-out: Antitussive activity ED50-value (i.p.)

In order of rising ED50:
1. COc1ccccc1N1CCN(C(Cc2cccc(C)c2)c2ccccc2)CC1 (racemic) [Compound 31, dl-1-(2-Methoxyphenyl)-4-[1-phenyl-2-(3-tolyl)ethyl]-piperazine]  ~6 mg/kg
2. COc1ccccc1N1CCN(C(Cc2cccc(C)c2)c2ccccc2)CC1 (stereo not drawn) [Compound 32, l-1-(2-Methoxyphenyl)-4-[1-phenyl-2-(3-tolyl)ethyl]piperazine]  ~6 mg/kg
3. COc1ccc2c3c1O[C@H]1[C@@H](O)C=C[C@H]4[C@@H](C2)N(C)CC[C@@]341 [L, Codeine phosphate, reference compound]  12.2 mg/kg

Reference: patent publication US4162316A (priority 1975, dated 1979)
